Assay results: patent US20260209220A1, “SUBSTITUTED TETRAHYDROPYRROLO-PYRIDINONE COMPOUNDS AND THEIR USE IN TREATING MEDICAL CONDITIONS” (Karuna Therapeutics, Inc., priority 2022, published 2026)

Experiments:
hM4 receptors = molecular target: T1, hM4 receptors (Homo sapiens, UniProt P08173); test: Human M4 PAM PERK assay (CHO cells, TR-FRET, with EC20 acetylcholine); type: cell-based
T1 construct: expressed in transfected cells; host or cells: CHO cells
T1 sequence (P08173 1-479): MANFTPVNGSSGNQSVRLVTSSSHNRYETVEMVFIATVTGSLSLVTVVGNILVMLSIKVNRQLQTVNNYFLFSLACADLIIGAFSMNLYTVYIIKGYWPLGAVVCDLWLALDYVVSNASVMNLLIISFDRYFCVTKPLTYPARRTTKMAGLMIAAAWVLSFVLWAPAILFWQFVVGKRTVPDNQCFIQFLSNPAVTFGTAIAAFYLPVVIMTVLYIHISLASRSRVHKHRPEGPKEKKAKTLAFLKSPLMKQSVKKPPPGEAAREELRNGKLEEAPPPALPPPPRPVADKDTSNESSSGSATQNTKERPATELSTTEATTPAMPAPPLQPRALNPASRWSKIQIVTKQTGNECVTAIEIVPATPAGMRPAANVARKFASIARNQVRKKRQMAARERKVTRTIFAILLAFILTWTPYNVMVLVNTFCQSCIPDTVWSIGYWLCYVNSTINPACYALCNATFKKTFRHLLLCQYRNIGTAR
In short: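 CHO cells expressing human or rat M4, serum-starved 4 h, then given compound (10-point, 10 μM top, ½-log) with EC20 acetylcholine (10 nM final) for 5 min at 37 °C. Lysates assayed for phospho-ERK by TR-FRET after 2 h detection at RT.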

[1] = tested on: amphetamine-evoked hyperlocomotion; test: Amphetamine-evoked hyperlocomotion in rats (open field); type: in vivo, rat; conditions: Sprague Dawley rats, 0.5 mg/kg amphetamine s.c., distance traveled in the 60 min after AMP
Protocol: Compounds may be tested for ability to impact behavior activity of rats according to the following procedures. Animals: Adult male, Sprague Dawley rats (Envigo, Indianapolis, IN, USA) are housed in a colony maintained at 23° C. with 12 h light/dark cycles (lights on at 0600 hours). All animals weigh 290-330 g at the beginning of the study and are equally divided into 5 groups (n=8 per group) and received one of the treatment conditions listed below. Behavioral Procedures: Studies are conducted in MedAssociates open field chambers (27.3 cm×27.3 cm×20.3 cm, MedAssociates, St. Albans, VT) in which movement is automatically tracked and recorded by 16 beam arrays. The administration pretreatment of the test article is determined to coincide with Tmax at the time of the amphetamine-evoked session with optimal route of administration. All groups are subcutaneously treated with 0.5 mg/kg amphetamine (AMP). The test article is tested in three dose groups with a half-log increase between doses. Risperidone (0.55 mg/kg, 30 minutes, s.c.) may be used as a positive control and is administered to group 5. To determine the role of test article on AMP-evoked hyperlocomotion, rats are placed in the open area and allowed to habituate for 30 min before being s.c. dosed with 0.5 mg/kg AMP. Locomotor data (distance traveled) is recorded as 5-minute bins throughout the 90-minute session. The dose of AMP is chosen based on the selective increase in locomotor behavior relative to stereotypes. The dose of risperidone is chosen that produced reliable effects and served as a positive control. Statistical Analysis: Spontaneous locomotion (prior to AMP administration) is calculated as the total distance traveled during the first 30 minutes of the experimental session. AMP-evoked responses are calculated as the total distance traveled during the last 60 minutes of the experimental session which commenced immediately after AMP administration. Locomotor data may be analyzed by a one-way ANOVA. When there is a significant overall ANOVA, post hoc comparisons may be made by Dunnett's test with statistical significance determined as p<0.05. […] Behavioral Procedures: Studies were conducted in MedAssociates open field chambers (27.3 cm×27.3 cm×20.3 cm, MedAssociates, St. Albans, VT) in which movement was automatically tracked and recorded by 16 beam arrays. Administration pretreatment of the test article was determined to coincide with Tmax at the time of the amphetamine-evoked session with optimal route of administration. […] Locomotor data (distance traveled) was recorded as 5-minute bins throughout the 90-minute session. […] Statistical Analysis: Spontaneous locomotion (prior to AMP administration) was calculated as the total distance traveled during the first 30 minutes of the experimental session. […]

| EC50 (hM4 receptors) | Compound | Dose Amount of Compound at which rats displayed a reduction in amphetamine-evoked hyperlocomotion activity [1] |
| --- | --- | --- |
| < 0.05 µM | Cc1c2c(n(C)c(=O)c1F)CN(C(=O)CC1CN(c3ccc(C4CC4)c(F)c3)C1)C2 [Compound I-88] | 10 mg/kg |
| < 0.05 µM | Cc1c2c(n(C)c(=O)c1C)CN(C(=O)CC1CN(c3ccnc(C(F)(F)F)c3)C1)C2 [Compound I-42, 1,3,4-Trimethyl-6-(2-(1-(2-(trifluoromethyl)pyridin-4-yl)azetidin-3-yl)acetyl)-1,5,6,7-tetrahydro-2H-pyrrolo[3,4-b]pyridin-2-one] | 32 mg/kg |
| 0.05 to 0.2 µM | Cc1cc(=O)n(C)c2c1CN(C(=O)CC1CN(c3cccc(F)c3F)C1)C2 [Compound I-14] | 32 mg/kg |
| 0.05 to 0.2 µM | Cc1cc(=O)n(C)c2c1CN(C(=O)CC1CN(c3cc(F)cc(C4CC4)c3)C1)C2 [Compound I-4] | 10 mg/kg |
